Reference: ChEMBL document CHEMBL1133405, “Design and synthesis of functionalized glycomers as non-peptidic ligands for SH2 binding and as inhibitors of A-431 human epidermoid and HT-29 colon carcinoma cell lines” (Bioorg Med Chem Lett, 2000)

How the values were obtained:
[1] = system: HT-29; experiment: Cytotoxicity of compound was measured for the growth inhibition of HT-29 human colon carcinoma cell line; type: functional, cell-based
[2] = system: A-431; experiment: Cytotoxicity measured for the growth inhibition of A-431 Human epidermoid carcinoma cell line; type: functional, cell-based
[3] = target: Growth factor receptor-bound protein 2 (Homo sapiens) (UniProt P62993); experiment: Compound was evaluated for the inhibitory activity against Growth factor receptor bound protein 2 SH2 at a concentration of 100 uM
Growth factor receptor-bound protein 2 (Homo sapiens), sequence (P62993 whole entry, looked up): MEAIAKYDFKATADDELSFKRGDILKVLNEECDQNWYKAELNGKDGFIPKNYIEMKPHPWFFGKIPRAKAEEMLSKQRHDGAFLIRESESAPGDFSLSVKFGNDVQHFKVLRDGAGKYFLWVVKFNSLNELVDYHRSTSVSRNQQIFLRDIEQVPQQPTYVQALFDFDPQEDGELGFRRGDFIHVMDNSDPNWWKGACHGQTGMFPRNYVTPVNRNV

| SMILES | IC50 [1] [µM] | IC50 [2] [µM] | inhibition [3] [%] |
| --- | --- | --- | --- |
| C=CCO[C@H]1[C@H](O)[C@H](COS(=O)(=O)c2cccc(C(F)(F)F)c2)O[C@@H](Oc2ccc(I)cc2)[C@H]1OC(=O)Cc1ccccc1 | 4.95 | 5.15 | – |
| C=CCO[C@@H]1[C@H](O)[C@H](Oc2ccc(I)cc2)O[C@@H](COC(=O)c2ccc3ccccc3c2)[C@H]1O | > 50 | > 50 | – |
| C=CCO[C@H]1[C@H](O)[C@H](COS(=O)(=O)c2cccc(C(F)(F)F)c2)O[C@@H](Oc2ccc(I)cc2)[C@H]1OC(C)=O | 23.1 | 6.1 | – |
| C=CCO[C@H]1[C@H](O)[C@H](COS(=O)(=O)c2ccc3ccccc3c2)O[C@@H](Oc2ccc(I)cc2)[C@H]1OC(C)=O | 11.6 | 5.2 | – |
| C=CCO[C@@H]1[C@H](O)[C@H](Oc2ccc(I)cc2)O[C@@H](COC(=O)c2ccc(Cl)cc2)[C@H]1O | 25.2 | 20.5 | – |
| C=CCO[C@H]1[C@H](O)[C@H](COS(=O)(=O)c2cccc(C(F)(F)F)c2)O[C@H](Oc2ccc(I)cc2)[C@@H]1OC(=O)CCC | 4 | 2.6 | – |
| C=CCO[C@@H]1[C@H](O)[C@H](Oc2ccc(I)cc2)O[C@@H](COCc2ccc(OC)cc2)[C@H]1O | 19.7 | 10.6 | – |
| C=CCO[C@H]1[C@H](O)[C@H](COS(=O)(=O)c2cccc(C(F)(F)F)c2)O[C@@H](Oc2ccc(I)cc2)[C@H]1OC(=O)c1ccccc1 | 7.5 | 7 | – |
| C=CCO[C@@H]1[C@H](O)[C@H](Oc2ccc(I)cc2)O[C@@H](COC(=O)c2ccc(OC)cc2)[C@H]1O | 55.1 | 24.6 | – |
| C=CCO[C@H]1[C@H](O)[C@H](COS(=O)(=O)c2cccc(C(F)(F)F)c2)O[C@@H](Oc2ccc(I)cc2)[C@H]1OC(=O)CC | 4.65 | 2.17 | – |
| C=CCO[C@H]1[C@H](O)[C@H](COS(=O)(=O)c2cccc(C(F)(F)F)c2)O[C@@H](Oc2ccc(I)cc2)[C@H]1OC(=O)CCc1ccccc1 | 3 | 2 | – |
| O=C(CCc1ccccc1)O[C@@H]1[C@H](Oc2ccc(I)cc2)O[C@@H](COS(=O)(=O)c2cccc(C(F)(F)F)c2)[C@@H](O)[C@@H]1OCCOC(=O)Nc1ccccc1 | 7.15 | 4.52 | 30 |
| C=CCO[C@H]1[C@H](O)[C@H](COS(=O)(=O)c2cccs2)O[C@@H](Oc2ccc(I)cc2)[C@H]1OC(C)=O | – | 12.8 | 30 |
| CCCO[C@H]1[C@H](O)[C@H](COS(=O)(=O)c2ccc3ccccc3c2)O[C@@H](Oc2ccc(OP(=O)(O)O)cc2)[C@H]1OC(C)=O [GLYCOMER] | > 50 | > 50 | – |
| C=CCO[C@@H]1[C@H](O)[C@H](Oc2ccc(I)cc2)O[C@@H](COS(=O)(=O)c2ccc3ccccc3c2)[C@H]1O | – | 8.81 | – |
| NC(=O)OCCO[C@@H]1[C@H](O)[C@H](Oc2ccc(I)cc2)O[C@@H](COS(=O)(=O)c2ccc3ccccc3c2)[C@H]1O | 23.1 | 9.1 | – |
| C=CCO[C@H]1[C@@H](O)[C@H](COS(=O)(=O)c2cccc(C(F)(F)F)c2)O[C@@H](Oc2ccc(I)cc2)[C@H]1OC(=O)C(C)C | 4.2 | 3.3 | 30 |
| C=CCO[C@H]1[C@H](O)[C@H](COS(=O)(=O)c2ccc(Cl)cc2)O[C@@H](Oc2ccc(I)cc2)[C@H]1OC(C)=O | – | 9.77 | – |
| C=CCO[C@@H]1[C@H](O)[C@H](Oc2ccc(I)cc2)O[C@@H](COS(=O)(=O)c2cccc(C(F)(F)F)c2)[C@H]1O | 35.5 | 36.8 | – |
| CCCO[C@H]1[C@H](O)[C@H](COS(=O)(=O)c2cccc(C(F)(F)F)c2)O[C@@H](Oc2ccc(OP(=O)(O)O)cc2)[C@H]1OC(C)=O [GLYCOMER] | 35.5 | 38.8 | – |
| O=C(Nc1ccccc1)OCCO[C@@H]1[C@H](O)[C@H](Oc2ccc(I)cc2)O[C@@H](COS(=O)(=O)c2ccc3ccccc3c2)[C@H]1O | 3.67 | 5.1 | – |
| C=CCO[C@@H]1[C@H](O)[C@H](Oc2ccc(I)cc2)O[C@@H](COC(=O)c2ccccc2)[C@H]1O | > 50 | > 50 | – |
